Laboratory results reported in US8420145B2, “Isosorbide derivatives and their use as flavor modifiers, tastants, and taste enhancers” (Senomyx, Inc., priority 2008, dated 2013).
“And” between values parts separate entries of the source, which are not always exact repeats. Equal entries are not always repeated. Each block holds one compound with its values, some of them ahead of it.

What was measured:
[1] = Time-intensity testing: panelists rate umami intensity over 70 seconds; format: in vivo, human; details: for Average Intensity-at-Max (umami intensity): scale 0 to 100
Experimental: Overview: Panelists Evaluate Various Solutions for Umami Intensity Over Time.
General procedure: Samples presented to panelists include various concentrations of MSG and compounds of interest. Samples may contain 0.1% ethanol to assist in dissolving compounds into solution. Samples are three-digit blind coded and served in 20 ml volumes. Samples are presented to panelists in randomized, counterbalanced order. All data is collected using the Compusense five software program. Umami intensity is rated on a scale from 0 to 100 (0=no umami intensity; 100=strong umami intensity). Panelists sip a sample and begin rating umami intensity. Panelists move the mouse on the horizontal scale to correspond to the umami intensity they perceive. Panelists continue rating the intensity for 70 seconds, and then expectorate the sample. The software program records an intensity score for each panelist for each 1 second period during the sample evaluation.
After tasting each sample, panelists sip and swish water in the mouth for a few seconds and expectorate. They may repeat this several times. Panelists wait 30 minutes before tasting the next sample.
Data analysis: Time-intensity curves are created for each of the samples and various parameters of the test are compared statistically.
To create the graphical representation of the sample: For each of the 70 seconds of the evaluation, panelists individual scores are averaged and presented graphically. For example, each panelist's intensity score at time=0 seconds is averaged and plotted. The same calculation is made for each of the 70 seconds to create the time-intensity curve.
To evaluate the Time to Maximum Intensity parameter: A time-intensity curve is created for each panelist. […] The specific time scores for each panelist are averaged. Next, the average scores for the various samples are compared using ANOVA, and multiple comparisons are performed using Tukey's Honestly Significant Difference test at alpha=0.05.

[2] = system: un-induced I-17 cells; experiment: FLIPR assay on un-induced I-17 cells (no mifepristone, receptor not expressed); format: cell-based
Experimental: In order to determine the dependency of hT1R1/hT1R3 for the cell response to different stimuli, selected compounds were subjected to a similar analysis on I-17 cells that had not been induced for receptor expression with mifepristone (designated as un-induced I-17 cells). […] Compounds were presented to un-induced umami cells at 10 μM-or three times the maximum stimulation used in the dose-response analysis.

[3] = 15 ppm (41.62 uM) in Low Sodium Buffer pH 7.1, n = 33
[4] = 2.5 ppm (6.86 uM) in Low Sodium Buffer pH 7.1, n = 36
[5] = 12 mM in Low Sodium Buffer pH 7.1, n = 33
[6] = 12 mM in Low Sodium Buffer pH 7.1, n = 36
[7] = 16 mM in Low Sodium Buffer pH 7.1, n = 36

Structure (SMILES): O=C(N[C@H]1CO[C@H]2[C@@H]1OC[C@@H]2n1cc(CC2CCCCC2)nn1)C1CC1 [Example 1, N-((3S,3αR,6S,6αR)-6-(4(cyclohexylmethyl)-1H-1,2,3-triazol-1-yl)-hexahydrofuro[13,2-b]furan-3-yl)cyclopropanecarboxamide]
Average Time-to-Max (time to maximum umami intensity) [1, 3]: 14.9 s | average intensity at maximum compared with Sample 1 (12 mM MSG), Tukey's HSD test ([1]; 15 ppm (41.62 uM), p<0.05): significantly more savory | average intensity at maximum compared with Sample 2 (16 mM MSG), Tukey's HSD test ([1]; 15 ppm (41.62 uM), p>0.1): not significantly different | average time to maximum intensity compared with Sample 2 (16 mM MSG), Tukey's HSD test ([1]; 15 ppm (41.62 uM), p>0.1): not significantly different | Average Intensity-at-Max (umami intensity) [1, 3]: 57

melting point: 181.5 to 182.5 °C
Structure (SMILES): O=C(CCCC1CCCCC1)N[C@H]1CO[C@H]2[C@@H]1OC[C@@H]2NC(=O)C1CC1 [Example 29, N-((3S,3αR,6S,6αR)-6-(4cyclohexylbutanamido)hexahydrofuro-[3,2-b]furan-3-yl)cyclopropanecarboxamide]
average time to maximum intensity compared with Sample 4 (12 mM MSG) and Sample 5 (16 mM MSG), Tukey's HSD test ([1]; 2.5 ppm (6.86 uM)): not significantly different | Average Time-to-Max (time to maximum umami intensity) [1, 4]: 18.3 s | average intensity at max compared with Sample 4 (12 mM MSG) or Sample 5 (16 mM MSG), Tukey's HSD test ([1]; 2.5 ppm (6.86 uM), p>0.1): not significantly different | Average Intensity-at-Max (umami intensity) [1, 4]: 57.9

Structure (SMILES): N[C@@H](CCC(=O)O)C(=O)[O-].[Na+] [monosodium glutamate, Monosodium Glutamate]
functional response in the FLIPR assay [2]: do not show any functional response | Average Time-to-Max (time to maximum umami intensity) [1, 5]: 15.9 s | Average Time-to-Max (time to maximum umami intensity) [1, 6]: 18.8 s | Average Time-to-Max (time to maximum umami intensity) ([1]; 16 mM in Low Sodium Buffer pH 7.1, n = 33, listed as Sample 2): 17 s and 17.7 s | Average Time-to-Max (time to maximum umami intensity) [1, 7]: 16.3 s | Average Intensity-at-Max (umami intensity) [1, 5]: 45.3 | Average Intensity-at-Max (umami intensity) [1, 6]: 49.8 | Average Intensity-at-Max (umami intensity) ([1]; 16 mM in Low Sodium Buffer pH 7.1, n = 33): 53.8 | Average Intensity-at-Max (umami intensity) [1, 7]: 62.9
